Test results published in patent US20210330611A1, “THERAPY FOR NEUROLOGICAL DISEASES/DISORDERS” (priority 2020, published 2021).
Structures can show the parent of a compound that is named as a salt. Where two headings read alike, the source gives them in different places.

How the values were obtained:
[1] = system: fibrin-induced microglia activation; assay: Image-based assay of fibrin-induced microglia activation (HTS and dose response); assay type: cell-based, rat; conditions: for inhibition at 10 µM: Rattus norvegicus, Microglia, read-out: Fibrin % inhibition
[2] = system: LPS-induced microglia activation; assay: Image-based assay of LPS-induced microglia activation (HTS and dose response); assay type: cell-based, rat; conditions: for inhibition at 10 µM: Rattus norvegicus, Microglia, read-out: LPS % inhibition
[3] = system: fibrin- and LPS-induced microglia activation; assay: cells; assay type: cell-based, rat
primary rat microglia [4] = assay: Cell toxicity (dead cells, size <150 μm2) in LPS assay
primary rat microglia [5] = assay: Cell toxicity (dead cells, size <150 μm2) in coated fibrin (cFib) assay;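 note: share of dead cells sized under 150 µm2 at 10 µM in fibrin-stimulated microglia HTS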
[6] = primary microglia HTS, fibrin stimulation, increased cell size (>800 μm^2) as marker of activation
[7] = 48 h, primary microglia HTS, LPS stimulation, increased cell size (>800 μm^2) as marker of activation
[8] = quadrant by fibrin and LPS inhibition in HTS of 1907 compounds
[9] = primary microglia HTS, LPS stimulation, decreased size (<150 μm^2) as marker of toxicity
[10] = primary microglia HTS, fibrin stimulation, decreased size (<150 μm^2) as marker of toxicity
[11] = primary microglia HTS, 10 μM, fibrin-stimulated, cell size >800 μm^2 as marker of activation
[12] = primary microglia HTS, 10 μM, LPS-stimulated, cell size >800 μm^2 as marker of activation
[13] = HTS of 1907 compounds, quadrant by fibrin and LPS inhibition
[14] = primary microglia HTS, 10 μM, LPS assay, cell size <150 μm^2 as marker of toxicity
[15] = primary microglia HTS, 10 μM, fibrin assay, cell size <150 μm^2 as marker of toxicity
[16] = primary microglia HTS, LPS stimulation, increased cell size (>800 μm^2) as marker of activation
[17] = primary HTS, 10 μM, fibrin-stimulated primary microglia
[18] = primary HTS, 10 μM, LPS-stimulated primary microglia
[19] = primary HTS, 10 μM, LPS assay, dead cells size <150 μm2
[20] = primary HTS, 10 μM, fibrin assay, dead cells size <150 μm2

## C[C@@H]1CN(c2c(F)c(F)c3c(=O)c(C(=O)O)cn(C4CC4)c3c2F)C[C@H](C)N1 [Orbifloxacin]
[1]; [6]
  inhibition at 10 µM: -18%
[2]; [7]
  inhibition at 10 µM: 15%
[3]; [8]
  Quadrant (FIG. 5b): Q4
Primary rat microglia [4]; [9]
  LPS % cell toxicity: 0%
Primary rat microglia [5]; [10]
  Fibrin % cell toxicity: 0%

## O=C1C(O)=C(O)C(=O)C(O)=C1O [Tetraquinone]
[1]; [11]
  Fibrin % inhibition: −10%
[2]; [12]
  LPS % inhibition: 15%
[3]; [13]
  Quadrant (FIG. 5b): Q4
Primary rat microglia [4]; [14]
  LPS % cell toxicity: 0%
Primary rat microglia [5]; [15]
  Fibrin % cell toxicity: 0%

## O=[N+]([O-])C(Br)(CO)CO [Bronopol]
[1]; [6]
  inhibition at 10 µM: 43%
[2]; [7]
  inhibition at 10 µM: 119%
[3]; [8]
  Quadrant (FIG. 5b): Q1
Primary rat microglia [4]; [9]
  LPS % cell toxicity: 61%
Primary rat microglia [5]; [10]
  Fibrin % cell toxicity: 2%

## N=C(N)N/N=C/c1c(Cl)cccc1Cl [Guanabenz Acetate]
[1]; primary microglia HTS, fibrin stimulation, activation = cell size >800 μm2
  Fibrin % inhibition: −46%
[2]; primary microglia HTS, LPS stimulation, activation = cell size >800 μm2
  LPS % inhibition: −2%
[3]; [8]
  Quadrant (FIG. 5b): Q4
Primary rat microglia [4]; primary microglia HTS, LPS stimulation, toxicity = cell size <150 μm2
  LPS % cell toxicity: 0%
Primary rat microglia [5]; primary microglia HTS, fibrin stimulation, toxicity = cell size <150 μm2
  Fibrin % cell toxicity: 0%

## CCCCCCc1ccc(O)cc1O.Nc1c2ccccc2nc2ccccc12 [Acrisorcin, reference compound]
[1]; Table 1, dose response 0.001-20 μM, triplicates, primary rat microglia, 48 h, read-out: Fibrin IC50
  IC50: 7 µM
[1]; dose response, fibrin-induced microglia activation, read-out: Fibrin IC50
  IC50: 7 µM
[1]; fibrin-induced microglia activation, dose response, read-out: Fibrin IC50 (uM) (Suppl. Table 7)
  IC50: 7 µM
[1]; [6]
  Fibrin % inhibition: 87%
[2]; LPS-induced microglia activation, dose response, read-out: LPS IC50 (uM) (Suppl. Table 7)
  IC50: 5 µM
[2]; Table 1, dose response 0.001-20 μM, triplicates, primary rat microglia, 48 h, read-out: LPS IC50
  IC50: 5 µM
[2]; dose response, LPS-induced microglia activation, read-out: LPS IC50
  IC50: 5 µM
[2]; [16]
  LPS % inhibition: 113%
[3]; HTS hit classification
  Hit: HIT (Hits were defined as molecules that exhibited greater than 50% inhibition of either fibrin or LPS activation)
[3]; [13]
  Quadrant (FIG. 5b): Q2
[3]; Table 1, screen at 10 μM
  Quadrant (FIG. 5b): Q2
[3]; hit classification in microglia HTS
  Cherry-picked Hit (Suppl. Table 7): HIT (Hits were defined as molecules that exhibited greater than 50% inhibition of either fibrin or LPS activation)
[3]; [8]
  Quadrant (FIG. 5b): Q2
Primary rat microglia [4]; [9]
  LPS % cell toxicity: 52%
Primary rat microglia [4]; read-out: Cell Toxicity IC50 (uM) [LPS assay], LPS assay
  IC50: 6 µM
Primary rat microglia [5]; [10]
  Fibrin % cell toxicity: 2%

## Cc1ccc(C(=O)Nc2ccc(S(=O)(=O)O)c3cc(S(=O)(=O)O)cc(S(=O)(=O)O)c23)cc1NC(=O)c1cccc(NC(=O)Nc2cccc(C(=O)Nc3cc(C(=O)Nc4ccc(S(=O)(=O)O)c5cc(S(=O)(=O)O)cc(S(=O)(=O)O)c45)ccc3C)c2)c1 [Suramin]
[1]; [11]
  inhibition at 10 µM: -5%
[2]; [12]
  inhibition at 10 µM: 18%
[3]; [13]
  Quadrant (FIG. 5b): Q4
Primary rat microglia [4]; [14]
  LPS % cell toxicity: 0%
Primary rat microglia [5]; [15]
  Fibrin % cell toxicity: 0%

## CO[C@@]1(NC(=O)Cc2cccs2)C(=O)N2C(C(=O)O)=C(COC(N)=O)CS[C@@H]21 [Cefoxitin]
[1]; [17]
  inhibition at 10 µM: 6%
[2]; [18]
  inhibition at 10 µM: 8%
[3]; primary HTS, 10 μM
  Quadrant (FIG. 5b): Q4
Primary rat microglia [4]; [19]
  LPS % cell toxicity: 0%
Primary rat microglia [5]; [20]
  Fibrin % cell toxicity: 0%

## COc1cc(C(=O)NCCCCCC(=O)O)cc(OC)c1OC [Capobenic Acid]
[1]; [17]
  inhibition at 10 µM: 9%
[2]; [18]
  inhibition at 10 µM: 16%
[3]; primary HTS, 10 μM
  Quadrant (FIG. 5b): Q4
Primary rat microglia [4]; [19]
  LPS % cell toxicity: 0%
Primary rat microglia [5]; [20]
  Fibrin % cell toxicity: 1%

## O=[N+]([O-])c1ccc([As](=O)(O)O)cc1 [Nitarsone]
[1]; [6]
  Fibrin % inhibition: −3%
[2]; [16]
  LPS % inhibition: 19%
[3]; [8]
  Quadrant (FIG. 5b): Q4
Primary rat microglia [4]; [9]
  LPS % cell toxicity: 0%
Primary rat microglia [5]; [10]
  Fibrin % cell toxicity: 1%

## NCCc1cc(O)c(O)cc1O [Oxidopamine Hydrochloride]
[1]; [6]
  inhibition at 10 µM: 1%
[2]; [7]
  inhibition at 10 µM: 19%
[3]; [8]
  Quadrant (FIG. 5b): Q4
Primary rat microglia [4]; [9]
  LPS % cell toxicity: 0%
Primary rat microglia [5]; [10]
  Fibrin % cell toxicity: 0%
